Test results published in ChEMBL document CHEMBL1124324, “Rational design of enzyme inhibitors: multisubstrate analogue inhibitors” (J Med Chem, 1989).

biological target: Thymidylate synthase (Homo sapiens, UniProt P04818); assay: Inhibition of compound against thymidylate synthetase
Sequence (P04818 whole entry): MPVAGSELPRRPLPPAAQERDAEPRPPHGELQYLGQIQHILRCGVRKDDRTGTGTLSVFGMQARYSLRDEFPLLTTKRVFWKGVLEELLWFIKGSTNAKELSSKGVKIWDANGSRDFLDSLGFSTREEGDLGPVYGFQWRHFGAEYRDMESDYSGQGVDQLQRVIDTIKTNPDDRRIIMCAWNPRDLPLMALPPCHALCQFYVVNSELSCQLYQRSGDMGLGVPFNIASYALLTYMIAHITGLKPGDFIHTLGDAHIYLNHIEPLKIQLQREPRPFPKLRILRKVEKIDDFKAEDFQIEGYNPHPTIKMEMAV

Row | SMILES | Ki
1 | CN(CC1CNc2nc(N)[nH]c(=O)c2N1Cc1c[nH]c(=O)[nH]c1=O)c1ccc(C(=O)NC(CCC(=O)O)C(=O)O)cc1 (stereo not drawn) | 750 nM
2 | NC1=NC(=O)C2C(=N1)CCC(CNc1ccc(C(=O)NC(CCC(=O)O)C(=O)O)cc1)N2Cc1cn([C@H]2C[C@H](O)[C@@H](COP(=O)(O)O)O2)c(=O)[nH]c1=O (stereo partly drawn) | 30 nM
3 | CN1CCN(Cc2cn([C@H]3C[C@H](O)[C@@H](COP(=O)(O)O)O3)c(=O)[nH]c2=O)c2ccccc21 | 60 nM
